# Data taken from US20260242440A1, “NOVEL MEANS TO MODULATE NMDA RECEPTOR-MEDIATED TOXICITY” (FUNDAMENTAL PHARMA GMBH, priority 2018, published 2026).
# “Also recorded” adds a separate entry of the source.
# Legend:
# [1] = system: primary mouse hippocampal neurons; test: NMDA induced cell death (excitotoxicity) in cultured primary neurons; type: cell-based; conditions: polypeptide expressed via rAAV infection on DIV3; NMDA 20 μM for 10 min; cell death assessed 24 h later
# Procedure: Primary mouse hippocampal and cortical neurons were prepared and maintained as known. Briefly, hippocampi or cerebral cortex from P0 C57Bl/6NCrl mice were dissociated and plated at a density of 1.2*105/cm^2 in Growth Medium (GM), consisting of Neurobasal A medium (Gibco™, 10888022), 2% serum free B27™ Supplement (Gibco™, 17504044), 1% rat serum (Biowest, S2150), 0.5 mM L-Glutamine (Sigma, G7513) and 0.5% P-S. Cytosine β-D-arabinofuranoside (AraC; Sigma, C1768; 2.8 μM) was added on DIV3 to prevent the proliferation of glial cells. From DIV8, half of the medium was replaced by GM without Rat serum every 48 h until being used for experiments. 24 h before experiments, GM was replaced with transfection medium (10 mM HEPES, pH 7.4, 114 mM NaCl, 26.1 mM NaHCO3, 5.3 mM KCl, 1 mM MgCl2, 2 mM CaCl2, 30 mM glucose, 1 mM glycine, 0.5 mM C3H3NaO3, and 0.001% phenol red and 10% of phosphate-free Eagle's minimum essential medium, supplemented with 7.5 µg/ml insulin, 7.5 µg/ml transferrin and 7.5 ng/ml sodium selenite (ITS Liquid Media Supplement, Sigma-Aldrich Cat #I3146)). Primary hippocampal neurons were used in live cell imaging, cell death experiments, while cortical neurons were used for mRNA and protein extraction analysis.
# All viral particles were produced and purified as known in the art. All TRPM4 derived peptides (comprising SEQ ID NO:5, or any of SEQ ID NO:46 to SEQ ID NO:56) were cloned into rAAV backbone by PCR. shRNA against mouse TRPM4 were designed by BLOCK-iT™ RNAi Designer from Thermofisher to target: […] (SEQ ID NO:44, shTRPM4-1) and […] (SEQ ID NO:45, shTRPM4-2). Scramble shRNA (shSCR) has been tested and proven to have no known targets in mice. GPI anchor ([…], e.g. used in SEQ ID NO:53) sequences were synthesized by Eurofins Genomics (Ebersberg, Germany). All primers were synthesized and all plasmids were confirmed by sequencing by Eurofins Genomics.
# In order to investigate the role of TRPM4 in NMDA receptor mediated excitotoxicity, the inventors used RNA interference strategies to knock down TRPM4. Cultured primary mouse hippocampus neurons were infected on day 3 in vitro (DIV3) with recombinant adeno-associated viruses (rAAVs) providing for expression of a scramble control (shSCR), shTRPM4-1 (SEQ ID NO:44) or shTRPM4-2 (SEQ ID NO:45). On DIV15-16, neurons were challenged with N-methyl-D-aspartate (NMDA, 20 μM) for 10 min. After NMDA wash out, neurons were kept in the culture medium for another 24 h before analysis. […] Evidently, TRPM4 is thus involved in the process of NMDA receptor mediated excitotoxicity.
# In a next step, the inventors tried to identify regions in the mouse TRPM4 protein potentially involved in NMDA receptor mediated excitotoxicity. For this purpose, polypeptide fragments of mouse TRPM4 protein were generated and their impact on NMDA induced excitotoxicity analysed. To do so, primary neuron cultures were infected with respective rAAVs on DIV3, challenged with NMDA (20 μM) for 10 min on DIV17 and cell death assessed 24 hours later.
# The sequence of SEQ ID NO:5 in TRPM4 is located in vivo just beneath the plasma membrane. […] To test this hypothesis, the inventors created a fusion protein comprising SEQ ID NO:5 and a GPI anchor, SEQ ID NO:57. The sequence of the fusion is given in SEQ ID NO:53. Neurons infected with rAAV and expressing SEQ ID NO:47 (control) or SEQ ID NO:53 were exposed to NMDA (20 μM) for 10 min on DIV15-16, with cell death assessed after 24 h.
# In a next step, the inventors created a mutant of SEQ ID NO:5, in which two adjacent phenylalanine residues where substituted by tyrosine residues (SEQ ID NO: 54). […] TRPM5 is a protein related to but nonetheless distinct to TRPM4. The region in TRPM5 corresponding to SEQ ID NO:5, SEQ ID NO:55, shares only about 60% sequence identity with SEQ ID NO:5. Neurons were infected on DIV3 with rAAVs expressing SEQ ID NO: 5, SEQ ID NO: 54 or SEQ ID NO:55 and exposed to NMDA (20 μM) for 10 min on DIV17, with cell death assessed 24 h later. […]
# synaptic NMDA receptor = test: Gabazine induced calcium influx into mitochondria (synaptic NMDA receptor signalling); type: cell-based, mouse; conditions: primary cultured neurons, polypeptides expressed via rAAV
# Procedure: Gabazine induced mitochondrial Ca^2+ response in primary cultured neurons is recorded and analysed as described in a previous study (Qiu et al, Nat Commun. 2013; 4:2034, incorporated herewith by reference) using a FRET calcium indicator 4mtD3cpv that specifically located to mitochondria. Briefly, mitochondrial Ca^2+ levels were detected with FRET-based and mitochondrial targeted Ca^2+ indicator 4mtD3cpv. 4mtD3cpv were excited at 430±12 nm (CFP) and 500±10 nm (YFP), and emission of CFP (470±12 nm) and YFP (535±15 nm) were separated and filtered using a DualView beam splitter (AHF Analysentechnik and MAG Biosystems), and all fluorescence images were recorded through a 20× water-immersion objective at 1 Hz.
# In a further experiment the inventors assessed the impact of the polypeptide comprising the sequence of SEQ ID NO:5 and SEQ ID NO: 54, respectively, on Gabazine induced calcium influx (mitochondria), a measure of synaptic NMDA receptor signalling. The experiment was carried out in primary cultured neurons as described above.
# [2] = system: primary mouse hippocampal neurons; test: NMDA receptor induced mitochondrial membrane potential breakdown (Rh123 imaging); type: cell-based
# Procedure: Coverslips with primary cultured neurons (DIV15-DIV17) were used to examine mitochondrial membrane potential (Ψm) and mitochondrial calcium signalling, which was performed at room temperature in CO2-independent culture medium (CICM) containing: 10 mM HEPES, 140 mM NaCl, 2.5 mM KCl, 1.0 mM MgCl2, 2.0 mM CaCl2, 1.0 mM Glycine, 35.6 mM Glucose and 0.5 mM Na-pyruvate. All images were obtained by a cooled-CCD camera (iXon 887, Andor) on an upright microscope (BX51WI, Olympus). Fluorescence excitation was provided by a xenon arc lamp in combination with an excitation filter wheel (MT-20, Olympus). Data were collected using Cell^R software (Olympus), analysed using ImageJ and quantified using Igor Pro (WaveMetrics). Ψm was detected with the small molecule fluorescence indicator Rhodamine 123 (Rh123; Molecular Probe™, R302). Primary cultured neurons were loaded with 4.3 μM Rh123 in CICM at 37° C. for 30 min, then washed and left in CICM for another 30 min before recording. At the end of each experiment, the mitochondrial uncoupler FCCP (5 μM, Sigma-Aldrich, Cat #C2920) was applied to the cells to reach the maximal Rh123 fluorescence intensity. Rh123 was imaged with 470±20 nm excitation and 525±25 nm emission wavelengths using a 20× objective. Rh123 fluorescence intensity was measured in the nucleus to minimize contamination from cytosolic mitochondrial signal and Rh123 fluorescence intensity was normalized to the maximum FCCP signal for each region of interest.
# Mitochondrial dysfunction is a hallmark of NMDA receptor excitotoxicity and an early event en-route to neuronal death. A parameter that is often used to assess mitochondrial integrity is the mitochondrial membrane potential. A breakdown of the mitochondrial membrane potential can be observed after exposure of hippocampal or cortical neurons to NMDA and indicates excitotoxicity-associated mitochondrial dysfunction. Therefore, the inventors investigated the effect of polypeptides comprising the sequence of SEQ ID NO:5 or SEQ ID NO: 54 as well as of the control TRMP5 sequence (SEQ ID NO: 55) on mitochondrial membrane potential break down in primary mouse hippocampal neurons. Excitotoxicity leading to mitochondrial membrane potential break down was induced with bath application of 20 μM NMDA. After 11 minutes, the mitochondrial uncoupler, carbonylcyanide-p-trifluoromethoxyphenylhydrazone (FCCP) was added. Addition of FCCP leads to break-down of the mitochondrial membrane potential and served as a control of the test system.
# TRPM4 channel = target: T1, TRPM4 channel (Homo sapiens, UniProt Q8TD43); test: TRPM4 channel function, whole-cell patch clamp in PC3 cells; type: cell-based; conditions: 10 μM compound, pre-incubated 30-60 min
# T1 construct: PC3 cells are known to express TRPM4 channels; endogenous in cells; host or cells: PC3 prostate cancer cell line
# From the text: To assess any direct impact of compound P4 and compound P15 on TRPM4 channel function independent of NMDA receptors, the inventors used the prostate cancer cell line PC3 and patch clamp recordings. PC3 cells are known to express TRPM4 channels (C. Holzmann et al., Oncotarget. 6, 41783-93 (2015)). TRPM4 currents in turn are characterized by their calcium dependence and outward rectification (P. Launay et al., Cell. 109, 397-407 (2002)). Briefly, whole-cell patch clamp recordings were made from PC3 cells plated on 12 mm round coverslips secured with a platinum ring in a recording chamber (OAC-1, Science Products GmbH) mounted on a fixed-stage upright microscope (BX51WI, Olympus). […] Patch electrodes (3-4 MΩ) were made from 1.5 mm borosilicate glass and filled with cesium-based solutions (in mM: CsCl, 145; NaCl, 8; HEPES, 10; MgCl2, 1; plus either EGTA, 0.2 for a free Ca^2+ concentration of zero; or EGTA, 10 and CaCl2), 9.4 for a calculated free Ca^2+ concentration of 10 μM; Maxchelator, Stanford University). Recordings were made with a Multiclamp 700B amplifier, digitized through a Digidata 1550B and acquired and analyzed using pClamp 10 software (Molecular Devices). Access resistance (range: 10-20 MΩ) was monitored regularly during voltage clamp recordings and data was rejected if changes greater than 20% occurred.
# NMDA receptor = test: NMDA-induced calcium transients (Fura2 calcium imaging); type: cell-based, mouse; conditions: hippocampal neurons, 6 min NMDA (20 μM) application
# Procedure: In a further experiment, the impact of P4 and P15 on NMDA-induced calcium transients was assessed. Briefly, for calcium imaging, primary hippocampal neurons on coverslips were loaded with the cell-permeable, high-affinity ratiometric calcium indicator Fura2-AM (Invitrogen™ F1221), at 1 μM in CO2-independent culture medium (CICM; CICM contains: 10 mM HEPES, 140 mM NaCl, 2.5 mM KCl, 1.0 mM MgCl2, 2.0 mM CaCl2, 1.0 mM Glycine, 35.6 mM Glucose and 0.5 mM Na-pyruvate) for 30 min at 37° C., then washed and left in CICM for another 30 min to allow for de-esterification. Fura2 was excited at 340/11 nm and 380/11 nm, and fluorescence emission was obtained from a 40× UV compatible objective (LUMPLFLN, Olympus) through a 510/20 nm emission filter. For quantification, ImageJ was used to calculate average background-subtracted fluorescence intensities for 340 and 380 nm excitation (F340 and F380) from each neuron. Intracellular calcium levels were plotted as F340/F380 ratios over time, from which the NMDA response amplitude and area under the curve (AUC) was calculated to quantify NMDA-induced calcium influx.
# HEK293 cells = test: Luminescent cytotoxicity assay, HEK293 cells transfected with GRIN1 and GRIN2A or GRIN2B; type: cell-based, human; conditions: compound added 6 h after transfection; cell death 48 h after transfection
# Procedure: HEK293 cells were cultured in Dulbecco's Modified Eagle Medium (DMEM, Gibco™ 41965-039) supplement with 10% Fetal Bovine Serum (FBS, Gibco™, 10270), 1% Sodium Pyruvate (Gibco™, 11360070), 1% MEM NEAA (GibcoT^M, 11140035) and 0.5% Penicillin-Streptomycin (P-S; Sigma, P0781) and Passagel5-25 were used for experiments.
# To test the cytotoxicity of compounds according to the present invention, HEK293 cells (70-80% confluent) were transfected 24 hours after plating with both GRIN1 and GRIN2 Å or GRIN2B, respectively (1:[…]) with Lipofectamine 2000 according to manufacturer's instructions. The relative number of dead cells in the population at the indicated time points after transfection was measured with the CytoTox-Glo™ Cytotoxicity assay (Promega, G9290) according to manufacturer's instruction with minor modification. Briefly, 10% of total medium were mixed with 10 μL AAF-amino luciferin to reach a final volume at 200 μL with water, the dead cell relative luminescence units (DRLU) was measured by GloMax (Promega) in a 96 well white bottom polystyrene microplate (Corning Costar®, 3912). After all the measurements, lysis reagents have been added to the cells and 10% of lysate was used for the total cell relative luminescence units (TRLU) measurement. Cell death was calculated by the following equations: […]
# For drug testing, P4, P8, P9, P13 and P15 were added to the medium at indicated concentration 6 h after transfection. DRLU, TRLU and cell death were measured and calculated 48 h after transfection.
# T1 sequence (Q8TD43 whole entry): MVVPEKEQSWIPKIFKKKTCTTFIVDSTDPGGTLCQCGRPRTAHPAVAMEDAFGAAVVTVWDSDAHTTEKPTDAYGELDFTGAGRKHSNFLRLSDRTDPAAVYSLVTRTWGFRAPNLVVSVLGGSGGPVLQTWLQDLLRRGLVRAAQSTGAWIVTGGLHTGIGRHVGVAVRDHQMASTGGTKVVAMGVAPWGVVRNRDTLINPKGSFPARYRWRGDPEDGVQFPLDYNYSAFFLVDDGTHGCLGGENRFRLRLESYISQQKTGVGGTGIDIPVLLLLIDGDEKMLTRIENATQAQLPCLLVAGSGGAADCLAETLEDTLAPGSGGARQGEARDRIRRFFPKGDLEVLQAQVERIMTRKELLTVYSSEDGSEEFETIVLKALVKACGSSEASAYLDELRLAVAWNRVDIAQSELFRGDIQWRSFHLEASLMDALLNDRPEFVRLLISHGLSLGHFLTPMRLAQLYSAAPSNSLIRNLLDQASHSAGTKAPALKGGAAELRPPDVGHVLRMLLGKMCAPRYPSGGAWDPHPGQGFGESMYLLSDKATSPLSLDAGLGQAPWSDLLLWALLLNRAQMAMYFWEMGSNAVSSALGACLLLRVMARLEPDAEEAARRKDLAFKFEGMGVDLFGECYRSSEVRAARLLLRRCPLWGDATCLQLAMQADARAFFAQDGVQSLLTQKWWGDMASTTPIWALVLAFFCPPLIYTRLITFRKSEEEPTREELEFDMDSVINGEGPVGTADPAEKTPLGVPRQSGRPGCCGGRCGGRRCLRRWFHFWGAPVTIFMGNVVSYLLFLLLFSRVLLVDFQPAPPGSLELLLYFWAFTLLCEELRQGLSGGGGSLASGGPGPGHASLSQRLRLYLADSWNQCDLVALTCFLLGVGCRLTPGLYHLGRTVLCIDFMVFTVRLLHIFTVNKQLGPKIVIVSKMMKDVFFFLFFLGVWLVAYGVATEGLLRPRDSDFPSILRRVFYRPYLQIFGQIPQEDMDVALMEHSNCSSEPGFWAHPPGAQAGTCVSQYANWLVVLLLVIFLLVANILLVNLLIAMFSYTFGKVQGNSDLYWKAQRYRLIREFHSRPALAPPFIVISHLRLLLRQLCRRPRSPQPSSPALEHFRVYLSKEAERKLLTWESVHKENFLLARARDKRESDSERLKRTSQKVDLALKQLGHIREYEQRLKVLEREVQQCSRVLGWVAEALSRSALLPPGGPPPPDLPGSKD
Molecule,protection against NMDA induced cell death (neuroprotective effect) [1],Gabazine induced calcium influx into mitochondria (synaptic NMDA receptor),"NMDA receptor induced mitochondrial membrane potential breakdown ([2]; polypeptides expressed via rAAV, bath application of 20 μM NMDA)",TRPM4-like outwardly rectifying current activated by 10 μM Ca2+ (TRPM4 channel),NMDA-induced calcium transients (NMDA receptor),NMDA receptor induced cell death (HEK293 cells),"protection of mitochondrial membrane potential from NMDA excitotoxicity ([2]; compound applied 30 min prior to recording, bath application of NMDA)"
"SEQ ID NO:54: derivative of SEQ ID NO:5, having a conservative substitution of two Y for two F (NSEERAARLLLRRCPLWGEATCLQLAMQADARAYYAQDGVQSLLTQKWWGEMDSTTP; Mutant of SEQ ID NO:5 with F34Y and F35Y)",only slightly less effective in reducing NMDA receptor-mediated cell toxicity than SEQ ID NO:5,neither of these polypeptides affects synaptic NMDA receptor signalling; also recorded: not affected,capable of preventing NMDA receptor induced mitochondrial membrane potential breakdown,–,–,–,–
NCC1CCN(CC(=O)Nc2cc(Cl)c(Cl)cc2Cl)C1 (stereo not shown) [P15],–,–,–,not affected,neither compound P4 nor compound P15 reduced; also recorded: neither compound P4 nor P15 reduced,reduced the level of NMDA receptor induced cell death,significantly protect mitochondrial membrane potential from NMDA excitotoxicity
